Reference: doi:10.1101/2025.10.13.682046v1 (biorxiv, 2025)
pKd: −log10 of the molar value.

Target: CIP2A(1-560) (Homo sapiens, UniProt Q8TCG1)
Assay: microscale thermophoresis
Type: binding

SMILES	pKd
CC(C)=CCC[C@]1(C)C=Cc2c(O)c3c(c(CC=C(C)C)c2O1)O[C@]12C(=C[C@@H]4C[C@H]1C(C)(C)O[C@@]2(C/C=C(/C)C(=O)N1CCOCC1)C4=O)C3=O [DAP-19]	5.08
CC(C)=CCC[C@]1(C)C=Cc2c(O)c3c(c(CC=C(C)C)c2O1)O[C@]12C(=C[C@@H]4C[C@H]1C(C)(C)O[C@@]2(C/C=C(/C)C(=O)O)C4=O)C3=O [GIA, Gambogic acid]	5.34
CC(C)=CCC/C(C)=C/Cc1c(O)c(CC=C(C)C)c2c(c1O)C(=O)C1=C[C@@H]3C[C@H]4C(C)(C)O[C@@](C/C=C(/C)C(=O)NCCCCCNC(=O)CCCC[C@@H]5SC[C@@H]6NC(=O)N[C@@H]65)(C3=O)[C@@]14O2 [bGNA, biotinylated gambogenic acid]	5.38
